Measured values published in US9770026B2, “Substituted pyrimidine compound and uses thereof” (Shenyang Sinochem Agrochemicals R&D Co., Ltd., priority 2012, dated 2017).

Tests used:
rice blast = experiment: microbe, parasite or virus in culture; format: cell-based; conditions: Pyricularia oryzae; for inhibition at 8.3 ppm: read-out: inhibition rate against rice blast, 8.3 ppm, in vitro; for inhibition at 25 ppm: read-out: inhibition rate against rice blast, 25 ppm, in vitro
wheat powdery mildew = experiment: protectant activity in vivo against wheat powdery mildew; conditions: Triticum aestivum, 168 h, protectant activity; for pest or weed control at 400 µg/mL: read-out: control effect against wheat powdery mildew (%), 400 mg/L
corn rust = experiment: protectant activity in vivo against corn rust; conditions: Zea mays, 168 h, protectant activity; for pest or weed control at 6.25 µg/mL: read-out: control effect against corn rust (%), 6.25 mg/L; for pest or weed control at 25 µg/mL: read-out: control effect against corn rust (%), 25 mg/L; for pest or weed control at 100 µg/mL: read-out: control effect against corn rust (%), 100 mg/L; for pest or weed control at 400 µg/mL: read-out: control effect against corn rust (%), 400 mg/L
carmine spider mite = experiment: bioactivity test against carmine spider mite, airbrush spray; format: in vivo; conditions: Tetranychus cinnabarinus, 72 h, contrastive test, read-out: Insecticidal activity against carmine spider mite (% ); for pest or weed control at 600 µg/mL: 600 mg/L
How it was run: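 Broadbean seedlings infested with adult mites were sprayed with compound (acetone/methanol stock diluted in 0.1% Tween 80 water) by airbrush at 0.7 kg/cm^2, 0.5 ml. Three replicates were run. Mortality was scored after 72 hrs.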

armyworm = experiment: bioactivity test against armyworm, airbrush spray; format: in vivo; conditions: 72 h, read-out: Insecticidal activity against armyworm (%); for pest or weed control at 600 µg/mL: 600 mg/L
[1] = system: Green peach aphids (Myzus Persicae Sulzer); experiment: bioactivity test against green peach aphid, airbrush foliar spray; format: in vivo; conditions: Myzus persicae, foliar, 48 h, contrastive test, read-out: Insecticidal activity against peach aphid (%); for pest or weed control at 600 µg/mL: 600 mg/L; for pest or weed control at 10 µg/mL: 10 mg/L; for pest or weed control at 100 µg/mL: 100 mg/L
How it was run: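 Aphids (15-30 per cabbage leaf disc) on moist filter paper were airbrush-sprayed at 10 psi, 0.5 mL, with compound from acetone:methanol (1:1) diluted in water with 0.1% tween 80. Held at 25±1 C, 60±5% RH; survivors counted after 48 hrs to give death rates.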

cucumber gray mold = experiment: fungicidal activity in vitro (inhibition rate) against cucumber gray mold; format: cell-based; conditions: 25 ppm, in vitro; read-out: inhibition rate against cucumber gray mold
cucumber downy mildew = experiment: protectant activity in vivo against cucumber downy mildew; conditions: Cucumis sativus, 168 h, protectant activity; for pest or weed control at 25 µg/mL: read-out: control effect against cucumber downy mildew (%), 25 mg/L; for pest or weed control at 50 µg/mL: read-out: control effect against cucumber downy mildew (%), 50 mg/L; for pest or weed control at 100 µg/mL: read-out: control effect against cucumber downy mildew (%), 100 mg/L; for pest or weed control at 400 µg/mL: read-out: control effect against cucumber downy mildew (%), 400 mg/L
Diamond back moth = experiment: insecticidal activity against diamond back moth, airbrush spray; format: in vivo; conditions: 72 h; for pest or weed control at 600 µg/mL: 600 mg/L
How it was run: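 Airbrush leaf-disc spray test: both faces of 2 cm cabbage discs received 0.5 ml of test solution at 0.7 kg/cm^2. Solutions were made in acetone:methanol (1:1) and brought to concentration with 0.1% Tween 80 in water. Ten second-instar larvae per disc, triplicates, were held at 25° C and 60˜70% R.H., with mortality recorded at 72 hrs.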

SMILES | pest or weed control at 400 µg/mL (wheat powdery mildew) | pest or weed control at 400 µg/mL (corn rust) | pest or weed control at 600 µg/mL (carmine spider mite) | pest or weed control at 600 µg/mL (armyworm) | pest or weed control at 600 µg/mL [1] | inhibition at 25 ppm (cucumber gray mold) | pest or weed control at 25 µg/mL (cucumber downy mildew) | pest or weed control at 50 µg/mL (cucumber downy mildew) | pest or weed control at 100 µg/mL (cucumber downy mildew) | pest or weed control at 400 µg/mL (cucumber downy mildew) | pest or weed control at 600 µg/mL (Diamond back moth) | inhibition at 25 ppm (rice blast) | pest or weed control at 10 µg/mL [1] | pest or weed control at 100 µg/mL [1] | other results
Cc1ncnc(NC(C)c2cccc3ccccc23)c1Cl (stereo not drawn) [CK17, reference compound] | 100% | 100% | 40% | 0% | 0% | 0% | 0% | 10% | 40% | 100% | 0% |  |  |  | inhibition at 2.8 ppm (rice blast; read-out: inhibition rate against rice blast, 2.8 ppm, in vitro): 0%; inhibition at 8.3 ppm (rice blast): 50%; pest or weed control at 6.25 µg/mL (wheat powdery mildew; read-out: control effect against wheat powdery mildew (%), 6.25 mg/L): 50%; pest or weed control at 25 µg/mL (wheat powdery mildew; read-out: control effect against wheat powdery mildew (%), 25 mg/L): 70%; pest or weed control at 100 µg/mL (wheat powdery mildew; read-out: control effect against wheat powdery mildew (%), 100 mg/L): 75%; pest or weed control at 6.25 µg/mL (corn rust): 0%; pest or weed control at 25 µg/mL (corn rust): 0%; pest or weed control at 100 µg/mL (corn rust): 0%
Cc1ncnc(NCc2ccc(Oc3nc(Cl)c(Cl)cc3Cl)cc2)c1Cl [CK33, reference compound] | 0% | 0% | 41% | 100% | 0% | 0% |  |  |  | 0% | 29% | < 50% |  |  | pest or weed control at 10 µg/mL (armyworm; 10 mg/L): 0%; pest or weed control at 100 µg/mL (armyworm; 100 mg/L): 0%
CCC(Nc1nc(Cl)nc(C(=O)OC)c1Cl)c1ccc(Oc2ncc(C(F)(F)F)cc2Cl)cc1 (stereo not drawn) [CK35, reference compound] | 0% | 0% | 0% | 0% | 0% | 0% |  |  |  | 60% | 0% | < 50% |  |  | 
Cc1nc(C)c(Cl)c(NCc2ccc(OCc3ccccc3)cc2)n1 [CK52, reference compound] | 0% | 85% | 44% | 0% | 88% | 0% | 70% | 90% | 98% | 100% | 20% |  | 0% | 0% | inhibition at 8.3 ppm (rice blast): 0%
CCc1ncnc(NC(=O)Cc2ccc(Oc3ccc(C(F)(F)F)cn3)cc2)c1Cl [CK55, reference compound] | 60% | 0% | 0% | 0% | 0% | 0% | 0% | 0% | 0% | 100% | 0% | < 50% |  |  | 
Cc1ncnc(NC(=O)Cc2ccc(Oc3ccc(C(F)(F)F)cn3)cc2)c1Cl [CK56, reference compound] | 70% | 70% | 32% | 0% | 100% | < 50% | 0% | 0% | 10% | 100% | 0% | < 50% | 0% | 0% | pest or weed control at 10 µg/mL (carmine spider mite; 10 mg/L): 0%; pest or weed control at 100 µg/mL (carmine spider mite; 100 mg/L): 25%
Cc1ncnc(NC(=O)Cc2ccc(Oc3ccc(C(F)(F)F)cc3Cl)cc2)c1Cl [CK58, reference compound] | 0% | 0% | 0% | 0% | 100% | 0% |  |  |  | 0% | 0% | < 50% | 0% | 0% | 
CCc1ncnc(NC(=O)Cc2ccc(Oc3ccc(C(F)(F)F)cc3)cc2)c1Cl [CK59, reference compound] | 0% | 0% | 0% | 14% | 75% | 0% |  |  |  | 80% | 57% | 0% | 0% | 15% | 
Cc1ncnc(NC(=O)Cc2ccc(Oc3ncc(C(F)(F)F)cc3Cl)cc2)c1Cl [CK60, reference compound] | 0% | 0% | 0% | 0% | 81% | 0% | 0% | 0% | 10% | 100% | 86% | 0% | 0% | 0% | pest or weed control at 10 µg/mL (Diamond back moth; 10 mg/L): 15%; pest or weed control at 100 µg/mL (Diamond back moth; 100 mg/L): 25%
Cc1ncnc(NC(=O)Cc2ccc(Oc3ccc(C(F)(F)F)cc3)cc2)c1Cl [CK61, reference compound] | 70% | 0% | 0% | 0% | 88% | 0% | 30% | 85% | 90% | 100% | 0% | 0% | 0% | 0% | 
CC(Cl)c1ncnc(NCCc2ccc(Oc3nc(Cl)c(Cl)cc3Cl)cc2)c1Cl (stereo not drawn) [CK63, reference compound] | 50% | 100% | 0% | 71% | 100% | 0% |  |  |  | 70% | 57% | 0% | 0% | 0% | pest or weed control at 6.25 µg/mL (corn rust): 0%; pest or weed control at 25 µg/mL (corn rust): 0%; pest or weed control at 100 µg/mL (corn rust): 30%
